# Source: patent US7462600B2, “Macrolides” (Pfizer Inc, priority 2004, dated 2008)
# Like-named read-outs stand apart in the source and are kept apart here.
# Legend:
# Type in all cases: cell-based
# [1] = test system: Streptococcus pneumoniae 1016; experiment: MIC, microtiter broth dilution (NCCLS M100-S14), S. pneumoniae 1016 (susceptible)
# Outline: (§1)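 Susceptibility testing used microtiter trays with broth dilution. Values are minimum inhibitory concentrations interpreted under NCCLS guidance (M100-S14).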
# [2] = test system: Haemophilus influenzae 1218; experiment: MIC, microtiter broth dilution (NCCLS M100-S14), H. influenzae 1218 (susceptible)
# Outline: as §1
# [3] = test system: Streptococcus pyogenes 1079; experiment: MIC, microtiter broth dilution (NCCLS M100-S14), S. pyogenes 1079 (ermB)
# Outline: as §1
# [4] = test system: Streptococcus pneumoniae 1095; conditions: microtiter broth dilution
# Outline: as §1
# [5] = test system: Streptococcus pneumoniae 1175; conditions: microtiter broth dilution
# Outline: as §1
# [6] = S. pneumoniae 1016 (susceptible)
# [7] = H. influenzae 1218 (susceptible)
Compound,"MIC S. pneumo. 1016 [1, 6] [µg/mL]","MIC H. influenzae 1218 [2, 7] [µg/mL]",MIC S. pyogenes 1079 ([3]; S. pyogenes 1079 (ermB)) [µg/mL],MIC S. pneumo. 1095 ([4]; S. pneumoniae 1095 (ermB)) [µg/mL],MIC S. pneumo. 1175 ([5]; S. pneumoniae 1175 (mefA)) [µg/mL],MIC S. pneumo. 1016 ([1]; Streptococcus pneumoniae 1016) [µg/mL],MIC H. influenzae 1218 ([2]; Haemophilus influenzae 1218) [µg/mL],MIC S. pyogenes 1079 ([3]; Streptococcus pyogenes 1079) [µg/mL],MIC S. pneumo. 1095 ([4]; Streptococcus pneumoniae 1095) [µg/mL],MIC S. pneumo. 1175 ([5]; Streptococcus pneumoniae 1175) [µg/mL]
CC[C@H]1OC(=O)[C@H](C)C(=O)[C@H](C)[C@@H](O[C@@H]2O[C@H](C)C[C@H](N(C)C)[C@H]2O)[C@](C)(OC)C[C@@H](C)C(=O)[C@H](C)[C@H]2N(CC3(C)CN(Cc4nc5ccccc5[nH]4)C3)C(=O)O[C@]12C.O=CO [6.11],<0.06,1,>64.00,0.25,<0.06,–,–,–,–,–
CCC1OC(=O)C(C)C(=O)C(C)C(OC2OC(C)CC(N(C)C)C2O)C(C)(OC)CC(C)C(=O)C(C)C2N(CC3CCCN3Cc3cccc4cnccc34)C(=O)OC12C (stereo not drawn) [10.03],<0.06,8,64,0.25,0.25,–,–,–,–,–
"CCC1OC(=O)C(C)C(=O)C(C)C(OC2OC(C)CC(N(C)C)C2O)C(C)(OC)CC(C)C(=O)C(C)C2N(C3CN(S(=O)(=O)c4ccc(N5CCOC5=O)cc4)C3)C(=O)OC12C (stereo not drawn) [Example 3.115, 3-descladinosyl-11,12-dideoxy-6-O-methyl-3-oxo-12,11-(oxycarbonyl-(1-(4-(2-oxooxazolidin-3-yl)benzene-1-sulfonyl)-azetidin-3-yl)-imino)-erythromycin A]",–,–,–,–,–,<0.063,1,0.25,<0.063,0.125
"CCC1OC(=O)C(C)C(=O)C(C)C(OC2OC(C)CC(N(C)C)C2O)C(C)(OC)CC(C)C(=O)C(C)C2N(C3CN(Cc4ccn[nH]4)C3)C(=O)OC12C (stereo not drawn) [Example 1.18, (1H-pyrazol-5-yl)methyl]",–,–,–,–,–,<0.06,0.25,>64.00,1,2
CCC1OC(=O)C(C)C(=O)C(C)C(OC2OC(C)CC(N(C)C)C2O)C(C)(OC)CC(C)C(=O)C(C)C2N(CC3CCCN3S(=O)(=O)c3cccc4cnccc34)C(=O)OC12C (stereo not drawn) [10.46],<0.06,1,64,<0.06,<0.06,–,–,–,–,–
CCC1OC(=O)C(C)C(=O)C(C)C(OC2OC(C)CC(N(C)C)C2O)C(C)(OC)CC(C)C(=O)C(C)C2N(C3CN(C(=O)Nc4cc(-c5cncc(C)c5)n[nH]4)C3)C(=O)OC12C (stereo not drawn) [Example 2.08],–,–,–,–,–,<0.06,8,32,1,16
CC[C@H]1OC(=O)[C@H](C)[C@@H](OC(=O)N2CCCC2C)[C@H](C)[C@@H](O[C@@H]2O[C@H](C)C[C@H](N(C)C)[C@H]2O)[C@](C)(OC)C[C@@H](C)C(=O)[C@H](C)[C@H]2N(CC3CN(Cc4cccc5cccnc45)C3)C(=O)O[C@]12C (stereo partly drawn) [Example 5.04],–,–,–,–,–,<0.06,1,4,<0.06,<0.06
CCC1OC(=O)C(C)C(=O)C(C)C(OC2OC(C)CC(N(C)C)C2O)C(C)(OC)CC(C)C(=O)C(C)C2N(CC3CN(Cc4cnc5ncccn45)C3)C(=O)OC12C (stereo not drawn) [4.26],–,–,–,–,–,<0.06,0.25,>64.00,2,2
CCC1OC(=O)C(C)C(=O)C(C)C(OC2OC(C)CC(N(C)C)C2O)C(C)(OC)CC(C)C(=O)C(C)C2N(CC3CCCN3C(=O)c3nc4ccncc4[nH]3)C(=O)OC12C (stereo not drawn) [10.24],<0.06,2,>64.00,<0.06,1,–,–,–,–,–
"CCC1OC(=O)C(C)C(=O)C(C)C(OC2OC(C)CC(N(C)C)C2O)C(C)(OC)CC(C)C(=O)C(C)C2N(C3CN(S(=O)(=O)c4cccc(-n5cccn5)c4)C3)C(=O)OC12C (stereo not drawn) [Example 3.58, 3-descladinosyl-11,12-dideoxy-6-O-methyl-3-oxo-12,11-(oxycarbonyl-(1-(3-(1H-pyrazol-1-yl)benzenesulfonyl)-azetidin-3-yl)-imino)-erythromycin A]",–,–,–,–,–,<0.06,1,4,<0.06,<0.06
CCC1OC(=O)C(C)C(=O)C(C)C(OC2OC(C)CC(N(C)C)C2O)C(C)(OC)CC(C)C(=O)C(C)C2N(CC3CCCN3C(=O)c3cc4cnccc4nc3C)C(=O)OC12C (stereo not drawn) [10.41],<0.06,2,>64.00,<0.06,<0.06,–,–,–,–,–
"CCC1OC(=O)C(C)C(=O)C(C)C(OC2OC(C)CC(N(C)C)C2O)C(C)(OC)CC(C)C(=O)C(C)C2N(C3CCN(Cc4cccc5cnccc45)C3)C(=O)OC12C [Example 9.07, 3-descladinosyl-11,12-dideoxy-6-O-methyl-3-oxo-12,11-(oxycarbonyl-(1-((isoquinolin-5-yl)-methyl)-(R)-pyrrolidin-3-yl)-imino)erythromycin A]",<0.06,1,2,<0.06,0.12,–,–,–,–,–
CCC1OC(=O)C(C)C(=O)C(C)C(OC2OC(C)CC(N(C)C)C2O)C(C)(OC)CC(C)C(=O)C(C)C2N(CC3CN(C(=O)c4cccc(C#N)c4)C3)C(=O)OC12C (stereo not drawn) [4.06],–,–,–,–,–,0.02,3.12,>100.00,12.5,0.39
"CCC1OC(=O)C(C)C(=O)C(C)C(OC2OC(C)CC(N(C)C)C2O)C(C)(OC)CC(C)C(=O)C(C)C2N(C3CN(C(COC)c4ccnc5ncccc45)C3)C(=O)OC12C (stereo not drawn) [Example 1.80, 3-descladinosyl-11,12-dideoxy-6-O-methyl-3-oxo-12,11-(oxycarbonyl-(1-(2-(methoxy)-1S-(1,8-napthyridin-4-yl)-ethyl)-azetidin-3-yl)-imino)-erythromycin A]",–,–,–,–,–,<0.063,4,16,1,0.125
"CCC1OC(=O)C(C)C(=O)C(C)C(OC2OC(C)CC(N(C)C)C2O)C(C)(OC)CC(C)C(=O)C(C)C2N(C3CN(S(=O)(=O)c4ccc(-n5ccnc5)c(F)c4)C3)C(=O)OC12C (stereo not drawn) [Example 3.81, 3-descladinosyl-11,12-dideoxy-4-O-methyl-3-oxo-12,11-(oxycarbonyl-(1-(3-fluoro-4-(1H-imidazol-1-yl)benzenesulfonyl)-azetidin-3-yl)-imino)-erythromycin A]",–,–,–,–,–,<0.06,1,4,<0.06,<0.06
CCC1OC(=O)C(C)C(=O)C(C)C(OC2OC(C)CC(N(C)C)C2O)C(C)(OC)CC(C)C(=O)C(C)C2N(CC3CCN(C(=O)c4cccc5ncsc45)C3)C(=O)OC12C (stereo not drawn) [13.14],<0.06,1,>64.00,2,<0.06,–,–,–,–,–
CCC1OC(=O)C(C)C(=O)C(C)C(OC2OC(C)CC(N(C)C)C2O)C(C)(OC)CC(C)C(=O)C(C)C2N(CC3CN(Cc4ccc5ccccc5c4)C3)C(=O)OC12C (stereo not drawn) [4.29],–,–,–,–,–,<0.06,0.12,16,2,<0.06
CC[C@H]1OC(=O)[C@H](C)C(=O)[C@H](C)[C@@H](O[C@@H]2O[C@H](C)C[C@H](N(C)C)[C@H]2O)[C@](C)(OC)C[C@@H](C)C(=O)[C@H](C)[C@H]2N(CC3(O)CN(Cc4c[nH]c5ncccc45)C3)C(=O)O[C@]12C [7.04],<0.06,0.5,32,<0.06,1,–,–,–,–,–
CC[C@H]1OC(=O)[C@H](C)C(=O)[C@H](C)[C@@H](O[C@@H]2O[C@H](C)C[C@H](N(C)C)[C@H]2O)[C@](C)(OC)C[C@@H](C)C(=O)[C@H](C)[C@H]2N(CC3(O)CN(C(=O)c4cc5ncccc5[nH]4)C3)C(=O)O[C@]12C.O=CO [7.32],<0.06,2,>64.00,<0.06,2,–,–,–,–,–
CCC1OC(=O)C(C)C(=O)C(C)C(OC2OC(C)CC(N(C)C)C2O)C(C)(OC)CC(C)C(=O)C(C)C2N(CC3CCCN3C(=O)c3ccc4ncccc4c3)C(=O)OC12C (stereo not drawn) [10.06],<0.06,2,64,<0.06,0.12,–,–,–,–,–
CC[C@H]1OC(=O)[C@H](C)C(=O)[C@H](C)[C@@H](O[C@@H]2O[C@H](C)C[C@H](N(C)C)[C@H]2O)[C@](C)(OC)C[C@@H](C)C(=O)[C@H](C)[C@H]2N(CC3(C)CN(Cc4cccc5ncccc45)C3)C(=O)O[C@]12C [6.02],–,–,–,–,–,<0.06,2,32,<0.06,0.25
